Consider four compounds from patent US20170209434A1, “PROTEIN PHOSPHATASE 2A INHIBITORS FOR TREATING MYELODYSPLASTIC SYNDROMES” (priority 2014, published 2017).

For one data set, the target named is protein phosphatase 2A (Homo sapiens, UniProt P67775). Conditions: cited from earlier work.
Data set [1] concerns Namalwa cells. The data set is described as follows: MTT assay, Namalwa cell proliferation. Conditions: 72 hours. It is filed as cell-based. As for the experimental part:
(§1) FIG. 7A is a graph showing proliferation of HL60 cells 72 hours after treatment with 0.001 μM, 0.01 μM, 0.1 μM, 1.0 μM, 10 μM, or 100 μM LB-100 (grey) or 0.001 μM, 0.01 μM, 0.1 μM, 1.0 μM, 10 μM, or 100 μM lenalidomide (black), compared to control or vehicle. FIGS. 7B to 7C are graphs showing proliferation of Namalwa cells 72 hours after treatment with 0.001 μM, 0.01 μM, 0.1 μM, 1.0 μM, 10 μM, or 100 μM LB-100 (♦), 0.001 μM, 0.01 μM, 0.1 μM, 1.0 μM, 10 μM, or 100 μM lenalidomide (▪), or 0.001 μM, 0.01 μM, 0.1 μM, 1.0 μM, 10 μM, or 100 μM cantharidin (▴), compared to control or vehicle.
(§2) HL60 cells and U937 cells were compared (FIGS. 8A and 8B).
In general terms: Tetrazolium dyes change colour on reduction, which living cells bring about.

Data set [2] relates to Namalwa cells. Description: Apoptosis of Namalwa cells. It is filed as cell-based. The settings on record: for Percent Apoptosis: dissolved in MSG. The method, then:
FIG. 3 is a bar graph showing percentage of Namalwa cells undergoing apoptosis after treatment with 0.1 μM, 1.0 μM or 10 μM LB-100 dissolved in DMSO (grey) or MSG (black) compared to control and vehicle.
FIGS. 4A to 4D are a series of flow cytometry plots showing percentage of Namalwa cells undergoing apoptosis after treatment with control (FIG. 4A), 0.1 μM (FIG. 4B), 1.0 μM (FIG. 4C), or 10 μM (FIG. 4D) LB-100.

In data set [3] the test system is MDS that is resistant to lenalidomide. The data set is described as follows: Additional studies of efficacy in lenalidomide-resistant MDS (Example 3). It is filed as in vivo. As for the experimental part:
(§3) Additional studies, similar to the aforementioned Phase I design, are conducted to evaluate the efficacy of LB-100, alone or in combination with lenalidomide, in patients with del(5q) MDS or non-del(5q) MDS.

In a further data set the test system is HL60 cells. The data set is described as follows: MTT assay, HL60 cell proliferation. It is filed as cell-based. Conditions: 72 hours, significant difference at 1 μM. The method, then:
as §1, §2

Another data set deals with non-del(5q) MDS. Description: Additional studies of efficacy in non-del(5q) MDS (Example 3). The class given is in vivo. The settings on record: subject afflicted with non-del(5q) MDS. As for the experimental part:
as §3
An amount of LB-100 is administered to a subject afflicted with non-del(5q) MDS. […] An amount of LB-100 in combination with lenalidomide is administered to a subject afflicted with non-del(5q) MDS.

In another data set the test system is del(5q) MDS. The data set is described as follows: Additional studies of efficacy in del(5q) MDS (Example 3). The settings on record: subject afflicted with del(5q) MDS. It is filed as in vivo. As for the experimental part:
as §3
An amount of LB-100 is administered to a subject afflicted with del(5q) MDS. […] An amount of LB-100 in combination with lenalidomide is administered to a subject afflicted with del(5q) MDS.

The subject of data set [4] is Namalwa cells. Description: Cell cycle analysis of Namalwa cells treated with LB-100. The settings on record: for G1 / G2/M / S / Percent G1: 24 hours. It is filed as cell-based. The method, then: FIG. 1 is a bar graph showing percent of Namalwa cells in G1 arrest 24 hours after treatment with 0.1 μM, 1.0 μM or 10 μM LB-100 dissolved in DMSO (grey) or MSG (black) compared to control and vehicle.
FIG. 2 is a bar graph showing percent of Namalwa cells in G1 arrest 24 hours after treatment with 0.1 μM, 1.0 μM or 10 μM LB-100 compared to control.

Data set [5] has as its system Non-del(5q) patient BM MNCs. Description: Apoptosis of non-del(5q) patient BM MNCs. It is filed as cell-based. The settings on record: FIG. 5, 0.1-10 μM.
The subject of another data set is del(5q) patient BM MNCs. Description: Apoptosis of del(5q) patient BM MNCs. It is filed as cell-based. The method, then:
FIG. 6 is a bar graph showing percentage of primary BM MNCs from a Del(5q) patient undergoing apoptosis after treatment with 0.1 μM, 1.0 μM, or 10 μM lenalidomide (grey) or 0.1 μM, 1.0 μM, or 10 μM LB-100 (black), compared to a control.

In the next data set the test system is non-del (5q) MDS. The settings on record: cited from earlier work.
In the next data set the test system is del(5q) MDS patients. The settings on record: cited from earlier work.
A further data set addresses protein phosphatase 1. Conditions: cited from earlier work.

Sequence of protein phosphatase 2A (P67775 whole entry): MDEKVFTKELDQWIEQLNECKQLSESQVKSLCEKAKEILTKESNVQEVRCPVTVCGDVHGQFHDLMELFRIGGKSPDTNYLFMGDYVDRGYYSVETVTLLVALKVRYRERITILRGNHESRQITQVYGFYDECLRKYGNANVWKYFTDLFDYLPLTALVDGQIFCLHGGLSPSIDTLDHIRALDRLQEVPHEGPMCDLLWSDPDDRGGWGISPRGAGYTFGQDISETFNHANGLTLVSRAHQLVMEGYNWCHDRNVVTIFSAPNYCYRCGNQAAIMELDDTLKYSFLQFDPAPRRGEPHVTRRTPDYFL

`CN1CCN(C(=O)C2C(C(=O)O)[C@H]3CC[C@@H]2O3)CC1` (stereo partly drawn) [LB100]: on protein phosphatase 2A, the “PP2A inhibition (in words)” value is on record as “greater potency than lenalidomide”. Besides, in the data set on Namalwa cells [1], the “Proliferation in comparison to control (in words)” value is “significant decrease in proliferation”. Also, the “Percent Apoptosis” value in the data set on Namalwa cells [2] (0.1 μM) is 6.18%; in the data set with Namalwa cells [2] (1.0 μM) it was 6.5%; with Namalwa cells [2] (10 μM), 55.8%. Besides, the “Apoptosis (in words)” value in the data set on Namalwa cells [2] (at 10 μM when dissolved in MSG) was “led to apoptosis”; in [5] it was “did not lead to apoptosis”; in the data set with del(5q) patient BM MNCs (at 1 μM), “mild increase in apoptosis”. The “Efficacy in treating MDS resistant to lenalidomide (in words)” value in data set [3] is reported as “effective to treat”. The “Proliferation in comparison to treatment with lenalidomide (in words)” value in the data set on HL60 cells is “significant decreased proliferation”. Besides, the “Efficacy in treating non-del(5q) MDS (in words)” value in the data set with non-del(5q) MDS is recorded as “effective to treat”. Further, in the data set with del(5q) MDS, the “Efficacy in treating del(5q) MDS (in words)” value is listed as “effective to treat”. In addition, the G1 worked out at 17.73% in the data set with Namalwa cells [4] (0.1 μM, dissolved in DMSO); 18.69% in the data set with Namalwa cells [4] (0.1 uM, dissolved in MSG); 18.38% with Namalwa cells [4] (1.0 μM, dissolved in DMSO); 41.48% with Namalwa cells [4] (1.0 uM, dissolved in MSG); 28.97% with Namalwa cells [4] (10 μM, dissolved in DMSO); 46.34% with Namalwa cells [4] (10 uM, dissolved in MSG). The G2/M in the data set on Namalwa cells [4] (0.1 μM, dissolved in DMSO) is 16.51; with Namalwa cells [4] (0.1 uM, dissolved in MSG), 17.93; with Namalwa cells [4] (1.0 μM, dissolved in DMSO) it was 18.22; in the data set with Namalwa cells [4] (1.0 uM, dissolved in MSG), 6.96; in the data set on Namalwa cells [4] (10 μM, dissolved in DMSO) it was 8.9; with Namalwa cells [4] (10 uM, dissolved in MSG) it was 8.5. The G2/M in the data set on Namalwa cells [4] (Table 2, 0.1 μM) was 12.06%; with Namalwa cells [4] (Table 2, 1.0 μM), 20.8%; in the data set on Namalwa cells [4] (Table 2, 10 μM) it was 6.13%. The S in the data set on Namalwa cells [4] (0.1 μM, dissolved in DMSO) was found to be 65.76; with Namalwa cells [4] (0.1 uM, dissolved in MSG), 63.37; in the data set on Namalwa cells [4] (1.0 μM, dissolved in DMSO), 63.41; in the data set with Namalwa cells [4] (1.0 uM, dissolved in MSG), 51.56; in the data set with Namalwa cells [4] (10 μM, dissolved in DMSO), 62.13; with Namalwa cells [4] (10 uM, dissolved in MSG), 45.15. Moreover, the S amounted to 63.93% with Namalwa cells [4] (Table 2, 0.1 μM); 47.85% with Namalwa cells [4] (Table 2, 1.0 μM); 42.69% with Namalwa cells [4] (Table 2, 10 μM). For the same compound, the “Percent G1” value with Namalwa cells [4] (Table 2, 0.1 μM) is given as 24.01%; with Namalwa cells [4] (Table 2, 1.0 μM), 31.35%; in the data set with Namalwa cells [4] (Table 2, 10 μM), 51.18%. Besides, in the data set with Namalwa cells [4] (Table 2 and FIG. 2, 0.1-10 μM), the “G1 arrest, dose dependence (in words)” value is on record as “led to G1 arrest in a dose-dependent fashion”. Further, the “G1 arrest (in words)” value is given as “led to G1 arrest” in the data set on Namalwa cells [4] (at 10 μM in DMSO); “led to G1 arrest” in the data set on Namalwa cells [4] (at 1 and 10 μM in MSG). Besides, in the data set on del(5q) patient BM MNCs (FIG. 6, 0.1-10 μM), the “Apoptosis, dose dependence (in words)” value was “induced apoptosis in a dose dependent fashion”. The “Cytotoxicity compared with lenalidomide (in words)” value in the data set with del(5q) patient BM MNCs (at 10 μM) is on record as “more cytotoxic than lenalidomide”.

In the case of `Nc1cccc2c1CN(C1CCC(=O)NC1=O)C2=O` (stereo not drawn) [Lenalidomide, lenalidomide], the “transfusion independence (TI), % of patients” value was 26% with non-del (5q) MDS and 67% in the data set with del(5q) MDS patients (lower risk MDS patients with del(5q)). Moreover, the “duration of response, median” value in the data set with del(5q) MDS patients (patients with del5q MDS) is given as 2.5 years.

One may read the IC50 as the midpoint of a concentration-inhibition curve. As for `C=C1[C@@H](O)[C@@H]2O[C@]3(CC[C@H](/C=C/[C@@H](C)[C@@H]4CC(C)=C[C@@]5(O[C@H](C[C@@](C)(O)C(=O)O)CC[C@H]5O)O4)O3)CC[C@H]2O[C@@H]1[C@@H](O)C[C@H](C)[C@H]1O[C@@]2(CCCCO2)CC[C@H]1C` [Okadaic acid, 9,10-Deepithio-9,10-didehydroacanthifolicin], on protein phosphatase 2A, the 50% inhibitory concentration (IC50) was 0.1 to 1 nM; the “Selectivity over PP2B, PP2C and a range of other phosphatases (in words)” value is “highly selective”. In addition, the half-inhibitory concentration (IC50) on protein phosphatase 1 is 3 to 15 nM.

Take `C[C@@]12C(=O)OC(=O)[C@]1(C)[C@H]1CC[C@@H]2O1` [cantharidin]: the “PP2A inhibition (in words)” value on protein phosphatase 2A is “potent and selective inhibitor of PP2A”.
